According to patent US8178535B2, “Substituted sulfonamide compounds having bradykinin 1 receptor activity and use thereof as medicaments” (Gruenenthal GmbH, priority 2008, dated 2012):

Tests used:
[1] = molecular target: T1, human B1R receptor (hB1R) (Homo sapiens, UniProt P46663); assay: FLIPR Ca2+ assay (Fluo-4) on CHO K1 cells stably transfected with the human B1R gene; format: cell-based; conditions: test substance 10 μM, agonist Lys-Des-Arg9-bradykinin 0.5 nM, % inhibition compared to the maximum achievable inhibition; for inhibition at 10 µM: CHO-K1
T1 construct: host or cells: CHO K1 cells
T1 sequence (P46663 1-353): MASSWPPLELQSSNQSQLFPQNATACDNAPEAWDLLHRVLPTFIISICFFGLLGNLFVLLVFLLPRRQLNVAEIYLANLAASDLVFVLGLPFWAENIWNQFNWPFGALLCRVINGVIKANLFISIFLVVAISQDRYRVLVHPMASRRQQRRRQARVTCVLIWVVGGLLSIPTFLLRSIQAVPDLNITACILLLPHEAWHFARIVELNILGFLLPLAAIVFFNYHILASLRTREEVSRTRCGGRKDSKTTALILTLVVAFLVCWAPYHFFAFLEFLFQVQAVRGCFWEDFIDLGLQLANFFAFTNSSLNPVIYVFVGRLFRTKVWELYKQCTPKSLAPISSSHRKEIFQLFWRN
Procedure: (§1) The agonistic or antagonistic action of compounds can be quantified on the bradykinin 1 receptor (B1R) of humans and rats with ectopically expressing cell lines (CHO K1 cells) and with the aid of a Ca^2+-sensitive dye (Fluo-4) in the fluorescent imaging plate reader (FLIPR). The figure in percent activation refers to the Ca^2+ signal after addition of Lys-Des-Arg^9-bradykinin (0.5 nM) and Des-Arg^9-bradykinin (100 nM). Antagonists result in a suppression of the Ca^2+ inflow after the addition of the agonist. Percent inhibition values are given in comparison to the maximum achievable inhibition. The compounds according to the invention act, for example, on the B1R which is implicated in various disease states. This means that the compounds of the invention are useful as pharmaceutically active substances in medicaments for the treatment and/or inhibition of such disease states.
(§2) The agonistic or antagonistic action of substances can be determined on the bradykinin 1 receptor (B1R) of humans and rats by means of the following assay. According to this assay the Ca^2+ inflow through the channel is quantified by means of a Ca^2+-sensitive dye (Fluo-4 type, Molecular Probes Europe BV, Leiden, Netherlands), in a Fluorescent Imaging Plate Reader (FLIPR, Molecular Devices, Sunnyvale, USA).
(§3) Chinese hamster ovary cells (CHO K1 cells) are used, which are stably transfected with the human B1R gene (hB1R cells, Euroscreen s.a., Gosselies, Belgium), or with the B1R gene of rats (rB1R cells, Axxam, Milan, Italy). For functional investigations these cells are plated out on black 96-well plates with a clear floor (BD Biosciences, Heidelberg, Germany) in a density of 20,000/25,000 cells/well. The cells are incubated overnight with 10 vol. % FBS (foetal bovine serum, Gibco Invitrogen GmbH, Karlsruhe, Germany) at 37° C. and 5% CO2 in a culture medium (hB1R cells: Nutrient Mixture Ham's F12, Gibco Invitrogen GmbH, Karlsruhe, Germany; rB1R cells: D-MEM/F12, Gibco Invitrogen GmbH, Karlsruhe, Germany). The following day the cells are charged for 60 minutes at 37° C. with 2.13 μM Fluo-4 (Molecular Probes Europe BV, Leiden, Netherlands) in HBSS buffer (Hank's buffered saline solution, Gibco Invitrogen GmbH, Karlsruhe, Germany) together with […] (Sigma-Aldrich, Taufkirchen, Germany) and 10 mM HEPES (Sigma-Aldrich, Taufkirchen, Germany).
(§4) The plates are then washed twice with HBSS buffer and HBSS buffer is added which additionally contains 0.1% BSA (bovine serum albumin; Sigma-Aldrich, Taufkirchen, Germany), 5.6 mM glucose and 0.05% gelatin (Merck KGaA, Darmstadt, Germany). After further incubation for 20 minutes at room temperature the plates are used for the Ca^2+ measurement in the FLIPR. The Ca^2+-dependent fluorescence is measured both before and after the addition of substances (λex=488 nm, λem=540 nm). The quantification is carried out by measuring the highest fluorescence intensity (FC, fluorescence counts) over time.
(§5) The FLIPR protocol consists of two substance additions. First, test substances (10 μM) are pipetted onto the cells and the Ca^2+ inflow is compared with the control (hB1R: Lys-Des-Arg9-bradykinin 0.5 nM; rB1R: Des-Arg9-bradykinin 100 nM). This gives the result in percent activation referred to the Ca^2+ signal after addition of Lys-Des-Arg9-bradykinin (0.5 nM), bzw. Des-Arg9-bradykinin (100 nM). After 10 minutes' incubation 0.5 nM Lys-Des-Arg9-bradykinin (hB1R) and 100 nM Des-Arg^9-bradykinin (rB1R) are applied and the inflow of Ca^2+ is likewise determined. Antagonists lead to a suppression of the Ca^2+ inflow. The percent inhibition compared to the maximum achievable inhibition is calculated. The compounds show a good activity on both human and rat receptors.
(§6) The agonistic and antagonistic action of the compounds according to the invention on the bradykinin 1 receptor (B1R) of humans and rats were determined as described above. Antagonists lead to a suppression of the Ca^2+ inflow. […]

[2] = molecular target: T2, B1R receptor of rats (rB1R) (Rattus norvegicus, UniProt P97583); assay: FLIPR Ca2+ assay (Fluo-4) on CHO K1 cells stably transfected with the B1R gene of rats; format: cell-based; conditions: test substance 10 μM, agonist Des-Arg9-bradykinin 100 nM, % inhibition compared to the maximum achievable inhibition; for inhibition at 10 µM: CHO-K1
T2 construct: host or cells: CHO K1 cells
T2 sequence (P97583 1-337): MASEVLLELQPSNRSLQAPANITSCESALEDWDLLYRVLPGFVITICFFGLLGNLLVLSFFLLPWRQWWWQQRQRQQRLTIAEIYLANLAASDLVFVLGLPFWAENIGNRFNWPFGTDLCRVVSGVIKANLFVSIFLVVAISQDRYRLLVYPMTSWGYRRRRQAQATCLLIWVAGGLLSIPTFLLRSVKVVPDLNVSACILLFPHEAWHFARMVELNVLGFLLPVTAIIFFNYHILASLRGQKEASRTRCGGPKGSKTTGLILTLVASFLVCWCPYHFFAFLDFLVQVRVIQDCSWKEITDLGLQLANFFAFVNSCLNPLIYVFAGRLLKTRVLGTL
Procedure: as §1, §2, §3, §4, §5, §6

Row | SMILES | inhibition at 10 µM [1] [%] | inhibition at 10 µM [2] [%] | hB1R [10 μM] % Inhibition [1] [%] | rB1R [10 μM] % Inhibition [2] [%]
1 | COc1cc(C)c(S(=O)(=O)N2CCCCC2COCC(=O)N2CCn3cccc3C2c2ccc(C(F)(F)F)cc2F)c(C)c1 (centres unmarked) [(32), 1-(1-(2-fluoro-4-(trifluoromethyl)phenyl)-3,4-dihydropyrrolo[1,2-a]pyrazin-2(1H)-yl)-2-((1-(4-methoxy-2,6-dimethylphenylsulfonyl)piperidin-2-yl)methoxy)ethanone] | 61 | 99 | – | –
2 | Cc1cc(C)c(S(=O)(=O)N2CCCCC2COCC(=O)N2CCn3cccc3C2C(C)(C)C)c(C)c1 (centres unmarked) [(33), 1-(1-tert-butyl-3,4-dihydropyrrolo[1,2-a]pyrazin-2(1H)-yl)-2-((1-(mesitylsulfonyl)piperidin-2-yl)methoxy)ethanone] | 98 | 100 | – | –
3 | Cc1cc(C)c(S(=O)(=O)N2CCCCC2COCC(=O)N2CCn3cccc3C2C)c(C)c1 (centres unmarked) [(34), 2-((1-(mesitylsulfonyl)piperidin-2-yl)methoxy)-1-(1-methyl-3,4-dehydro-pyrrolo[1,2-a]pyrazin-2(1H)-yl)ethanone] | – | – | 76 | 99
4 | Cc1cc(C)c(S(=O)(=O)N2CCCCC2COCC(=O)N2CCn3cccc3C2c2cccnc2)c(C)c1 (centres unmarked) [(35), 2-((1-(mesitylsulfonyl)piperidin-2-yl)methoxy)-1-(1-(pyridin-3-yl)-3,4-dihydropyrrolo[1,2-a]pyrazin-2(1H)-yl)ethanone] | 100 | 97 | – | –
5 | Cc1cc(C)c(S(=O)(=O)N2CCCCC2COCC(=O)N2CCn3cccc3C2c2ccc(Cl)nc2)c(C)c1 (centres unmarked) [(36), 1-(1-(6-chloropyridin-3-yl)-3,4-dihydropyrrolo[1,2-a]pyrazin-2(1H)-yl)-2-((1-(mesitylsulfonyl)piperidin-2-yl)methoxy)ethanone] | 99 | 99 | – | –
6 | Cc1cc(C)c(S(=O)(=O)N2CCCCC2COCC(=O)N2CCn3ccnc3C2)c(C)c1 (centres unmarked) [(37), 1-(5,6-dihydroimidazo[1,2-a]pyrazin-7(8H)-yl)-2-((1-(mesitylsulfonyl)piperidin-2-yl)methoxy)ethanone] | 18 | 91 | – | –
7 | COc1ccc(C2c3cccn3CCN2C(=O)COCC2CCCCN2S(=O)(=O)c2c(C)cc(C)cc2C)cc1 (centres unmarked) [(38), 2-((1-(mesitylsulfonyl)piperidin-2-yl)methoxy)-1-(1-(4-methoxyphenyl)-3,4-dihydropyrrolo[1,2-a]pyrazin-2(1H)-yl)ethanone] | 90 | 99 | – | –
8 | Cc1cc(C)c(S(=O)(=O)N2CCCCC2COCC(=O)N2CCn3cccc3C2c2ccccc2)c(C)c1 (centres unmarked) [(39), 2-((1-(mesitylsulfonyl)piperidin-2-yl)methoxy)-1-(1-phenyl-3,4-dihydropyrrolo[1,2-a]pyrazin-2(1H)-yl)ethanone] | 77 | 99 | – | –
9 | Cc1cc(C)c(S(=O)(=O)N2CCCCC2COCC(=O)N2CCn3cccc3C2c2ccc(F)c(F)c2)c(C)c1 (centres unmarked) [(40), 1-(1-(3,4-difluorophenyl)-3,4-dihydropyrrolo[1,2-a]pyrazin-2(1H)-yl)-2-((1-(mesitylsulfonyl)piperidin-2-yl)methoxy)ethanone] | 38 | 100 | – | –
10 | Cc1cc(C)c(S(=O)(=O)N2CCCCC2COCC(=O)N2CCn3cccc3C2c2ccc(C)c(C)c2)c(C)c1 (centres unmarked) [(41), 1-(1-(3,4-dimethylphenyl)-3,4-dihydropyrrolo[1,2-a]pyrazin-2(1H)-yl)-2-((1-(mesitylsulfonyl)piperidin-2-yl)methoxy)ethanone] | 35 | 98 | – | –
11 | Cc1cc(C)c(S(=O)(=O)N2CCCCC2COCC(=O)N2CCn3cccc3C2c2cccc(F)c2)c(C)c1 (centres unmarked) [(42), 1-(1-(3-fluorophenyl)-3,4-dihydropyrrolo[1,2-a]pyrazin-2(1H)-yl)-2-((1-(mesitylsulfonyl)piperidin-2-yl)methoxy)ethanone] | 73 | 99 | – | –
12 | Cc1cc(C)c(S(=O)(=O)N2CCCCC2COCC(=O)N2CCn3cccc3C2c2cccs2)c(C)c1 (centres unmarked) [(43), 2-((1-(mesitylsulfonyl)piperidin-2-yl)methoxy)-1-(1-(thiophen-2-yl)-3,4-dihydropyrrolo[1,2-a]pyrazin-2(1H)-yl)ethanone] | 96 | 98 | – | –
13 | Cc1cc(C)c(S(=O)(=O)N2CCCCC2COCC(=O)N2CCn3cccc3C2c2cccc(C(F)(F)F)c2)c(C)c1 (centres unmarked) [(44), 2-((1-(mesitylsulfonyl)piperidin-2-yl)methoxy)-1-(1-(3-(trifluoromethyl)phenyl)-3,4-dihydropyrrolo[1,2-a]pyrazin-2(1H)-yl)ethanone] | 10 | 79 | – | –
14 | Cc1cc(C)c(S(=O)(=O)N2CCCCC2COCC(=O)N2CCn3cccc3C2CCc2ccccc2)c(C)c1 (centres unmarked) [(45), 2-((1-(mesitylsulfonyl)piperidin-2-yl)methoxy)-1-(1-phenethyl-3,4-dihydro-pyrrolo[1,2-a]pyrazin-2(1H)-yl)ethanone] | 45 | 98 | – | –
15 | Cc1cc(C)c(S(=O)(=O)N2CCCCC2COCC(=O)N2CCn3c(CN(C)C)ccc3C2c2ccccc2)c(C)c1 (centres unmarked) [(46), 1-(6-((dimethylamino)methyl)-1-phenyl-3,4-dihydropyrrolo[1,2-a]pyrazin-2(1H)-yl)-2-((1-(mesitylsulfonyl)piperidin-2-yl)methoxy)ethanone] | 102 | 102 | – | –
16 | Cc1cc(C)c(S(=O)(=O)N2CCCCC2COCC(=O)N2CCn3c(CN4CCCC4)ccc3C2c2ccccc2)c(C)c1 (centres unmarked) [(47), 2-((1-(mesitylsulfonyl)piperidin-2-yl)methoxy)-1-(1-phenyl-6-(pyrrolidin-1-yl-methyl)-3,4-dihydropyrrolo[1,2-a]pyrazin-2(1H)-yl)ethanone] | 101 | 103 | – | –
